Laboratory results published in the supplement of paper PMC8976852.
± gives the standard deviation of the averaged measurements.

How the values were obtained:
Assay in all cases: activity (1 - area under the dose-response curve within the screened range) (fraction); higher = more sensitive
Settings in all cases: treatment time: 72 h
HCM-SANG-0291-C15 = tested on: HCM-SANG-0291-C15 (oesophageal cancer organoid)
Procedure: (§1)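 Patient-derived cancer organoids (colorectal and oesophageal, HCM-SANG models) were grown for up to 6 months in 5% or 80% ECM (BME-2), then seeded in 384-well plates on an ECM layer and treated with 72 compounds for 3 days. Each compound used a 7-point half-log dilution series spanning a 1000-fold range, in technical triplicate and biological duplicate. Dose-response curves were fitted with a non-linear mixed effects model; fits with RMSE > 0.3 were removed, and activity = 1 - AUC within the screened dose range (0 = no activity, 1 = maximum).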

HCM-SANG-0266-C20 = tested on: HCM-SANG-0266-C20 (colorectal cancer organoid)
Procedure: as §1

HCM-SANG-0270-C20 = tested on: HCM-SANG-0270-C20 (colorectal cancer organoid)
Procedure: as §1

HCM-SANG-0532-C20 = tested on: HCM-SANG-0532-C20 (colorectal cancer organoid)
Procedure: as §1

[1] = ECM percentage in culture prior to screening 5 %
[2] = ECM percentage in culture prior to screening 80 %

Structure (SMILES)	activity (HCM-SANG-0291-C15; [1])	activity (HCM-SANG-0291-C15; [2])	activity (HCM-SANG-0266-C20; [1])	activity (HCM-SANG-0266-C20; [2])	activity (HCM-SANG-0270-C20; [1])	activity (HCM-SANG-0270-C20; [2])	activity (HCM-SANG-0532-C20; [1])	activity (HCM-SANG-0532-C20; [2])
COc1cc(Nc2ncc3c(n2)-c2ccc(Cl)cc2C(c2c(F)cccc2OC)=NC3)ccc1C(=O)O [Alisertib]	0.0593 ± 0.019	0.0714 ± 0.026	0.266 ± 0.08	0.31 ± 0.081	0.104 ± 0.078	0.124 ± 0.06	0.185 ± 0.063	0.148 ± 0.027
c1cn2cc(-c3ccc4cn[nH]c4c3)nc(Nc3ccc(N4CCOCC4)cc3)c2n1 [Entospletinib]	0.0238 ± 0.0074	0.0204 ± 0.0022	0.0298 ± 0.01	0.0227 ± 0.0068	0.0261 ± 0.0085	0.0204 ± 0.0032	0.0354 ± 0.019	0.0256 ± 0.0054
CC1(C)CCC(CN2CCN(c3ccc(C(=O)NS(=O)(=O)c4ccc(NCC5CCOCC5)c([N+](=O)[O-])c4)c(Oc4cnc5[nH]ccc5c4)c3)CC2)=C(c2ccc(Cl)cc2)C1 [Venetoclax]	0.0236 ± 0.007	0.0311 ± 0.022	0.0407 ± 0.02	0.0384 ± 0.018	0.0303 ± 0.0092	0.0357 ± 0.029	0.0233 ± 0.0047	0.0331 ± 0.0083
C[C@]1(O)C[C@@H](c2nc(-c3ccc4ccc(-c5ccccc5)nc4c3)c3c(N)nccn32)C1 [Linsitinib]	0.0216 ± 0.0028	0.0248 ± 0.013	0.0577 ± 0.033	0.0295 ± 0.017	0.0341 ± 0.014	0.0245 ± 0.0092	0.033 ± 0.015	0.0378 ± 0.015
Cc1cc(-c2ncc(CC(=O)Nc3ccc(-c4cnccn4)cn3)cc2C)ccn1 [LGK974]	0.0263 ± 0.0099	0.0251 ± 0.0087	0.0334 ± 0.014	0.0329 ± 0.017	0.0409 ± 0.013	0.0485 ± 0.035	0.0269 ± 0.005	0.0397 ± 0.009
NC1(c2ccc(-c3nc4ccn5c(=O)[nH]nc5c4cc3-c3ccccc3)cc2)CCC1 [MK-2206]	0.086 ± 0.048	0.0594 ± 0.025	0.223 ± 0.074	0.152 ± 0.095	0.076 ± 0.014	0.0487 ± 0.04	0.158 ± 0.11	0.168 ± 0.034
NC(=O)Nc1cc(-c2cccc(F)c2)sc1C(=O)N[C@H]1CCCNC1 [AZD7762]	0.269 ± 0.016	0.248 ± 0.043	0.287 ± 0.041	0.232 ± 0.029	0.23 ± 0.049	0.199 ± 0.05	0.14 ± 0.056	0.177 ± 0.035
COc1cccc2cc(-c3nc([C@H]4CC[C@H](C(=O)O)CC4)n4ncnc(N)c34)[nH]c12 [OSI-027]	0.0395 ± 0.012	0.032 ± 0.014	0.141 ± 0.054	0.0937 ± 0.059	0.0587 ± 0.034	0.0504 ± 0.036	0.0577 ± 0.024	0.0906 ± 0.013
COc1ccc(C2=N[C@@H](c3ccc(Cl)cc3)[C@@H](c3ccc(Cl)cc3)N2C(=O)N2CCNC(=O)C2)c(OC(C)C)c1 [Nutlin-3a (-)]	0.0424 ± 0.021	0.0359 ± 0.015	0.218 ± 0.046	0.193 ± 0.064	0.161 ± 0.034	0.0722 ± 0.033	0.148 ± 0.039	0.203 ± 0.054
CCC1=C[C@@H]2CN(C1)Cc1c([nH]c3ccccc13)[C@@](C(=O)OC)(c1cc3c(cc1OC)N(C)[C@H]1[C@@](O)(C(=O)OC)[C@H](OC(C)=O)[C@]4(CC)C=CCN5CC[C@]31[C@@H]54)C2 [Vinorelbine]	0.0831 ± 0.009	0.107 ± 0.024	0.153 ± 0.031	0.153 ± 0.039	0.0834 ± 0.05	0.095 ± 0.046	0.0815 ± 0.04	0.107 ± 0.011
Cc1nc(NC(=O)N2CCC[C@H]2C(N)=O)sc1-c1ccnc(C(C)(C)C(F)(F)F)c1 [Alpelisib]	0.0264 ± 0.0063	0.0261 ± 0.011	0.13 ± 0.052	0.0656 ± 0.019	0.036 ± 0.027	0.0216 ± 0.0057	0.0918 ± 0.087	0.0904 ± 0.033
C[C@]12CC[C@@H]3c4ccc(O)cc4C[C@@H](CCCCCCCCC[S+]([O-])CCCC(F)(F)C(F)(F)F)[C@H]3[C@@H]1CC[C@@H]2O (stereo partly drawn) [Fulvestrant]	0.0285 ± 0.013	0.0212 ± 0.0031	0.0414 ± 0.019	0.0246 ± 0.0074	0.0292 ± 0.0081	0.0268 ± 0.015	0.022 ± 0.0021	0.0273 ± 0.0072
O=c1[nH]cc(F)c(=O)[nH]1 [5-Fluorouracil]	0.0848 ± 0.043	0.063 ± 0.035	0.137 ± 0.068	0.12 ± 0.061	0.123 ± 0.031	0.103 ± 0.075	0.0766 ± 0.035	0.121 ± 0.044
Nc1ccccc1NC(=O)c1ccc(CNC(=O)OCc2cccnc2)cc1 [Entinostat]	0.124 ± 0.045	0.119 ± 0.047	0.0903 ± 0.02	0.0905 ± 0.023	0.0723 ± 0.025	0.0687 ± 0.041	0.0795 ± 0.022	0.102 ± 0.025
COc1cc2c(Nc3ccc(NC(=O)c4ccccc4)cc3)ncnc2cc1OCCCN1CCOCC1	0.0708 ± 0.031	0.0657 ± 0.034	0.228 ± 0.027	0.212 ± 0.038	0.102 ± 0.054	0.106 ± 0.06	0.184 ± 0.07	0.166 ± 0.022
C[C@@H](Oc1cc(-c2cnn(C3CCNCC3)c2)cnc1N)c1c(Cl)ccc(F)c1Cl [Crizotinib]	0.0562 ± 0.022	0.065 ± 0.022	0.144 ± 0.035	0.0852 ± 0.034	0.0695 ± 0.034	0.0648 ± 0.056	0.101 ± 0.068	0.154 ± 0.04
CN(C)C(=O)c1cc2cnc(Nc3ccc(N4CCNCC4)cn3)nc2n1C1CCCC1 [Ribociclib]	0.0289 ± 0.0084	0.0323 ± 0.016	0.0335 ± 0.011	0.0512 ± 0.053	0.046 ± 0.028	0.0291 ± 0.019	0.0436 ± 0.036	0.0301 ± 0.0069
CC/C(=C(\c1ccccc1)c1ccc(OCCN(C)C)cc1)c1ccccc1 [Tamoxifen]	0.0279 ± 0.013	0.0235 ± 0.0053	0.0883 ± 0.053	0.0314 ± 0.011	0.0375 ± 0.013	0.0425 ± 0.025	0.0364 ± 0.025	0.0524 ± 0.021
C[C@@]1(C(=O)Nc2ccc(F)nc2)CCCN1c1nc(Nc2cc(C3CC3)n[nH]2)c2cccn2n1	0.126 ± 0.039	0.172 ± 0.056	0.455 ± 0.056	0.41 ± 0.056	0.18 ± 0.086	0.22 ± 0.11	0.279 ± 0.091	0.302 ± 0.035
CNC(=O)CN1CCC(Oc2cc3c(Nc4cccc(Cl)c4F)ncnc3cc2OC)CC1 [Sapitinib]	0.207 ± 0.076	0.159 ± 0.025	0.255 ± 0.081	0.121 ± 0.1	0.236 ± 0.12	0.139 ± 0.12	0.119 ± 0.038	0.179 ± 0.043
Cn1ncnc1[C@H]1c2n[nH]c(=O)c3cc(F)cc(c23)N[C@@H]1c1ccc(F)cc1 [Talazoparib]	0.249 ± 0.036	0.275 ± 0.045	0.0908 ± 0.022	0.0937 ± 0.043	0.0426 ± 0.031	0.0374 ± 0.026	0.0688 ± 0.05	0.0443 ± 0.014
